Among the data in patent US7326786B2, “Thiazolinone unsubstituted quinolines” (Hoffmann-La Roche Inc., priority 2004, dated 2008) are Ki values, retold here.

What is called Ki is the dissociation constant of the complex between target and ligand, obtained from inhibition or displacement.

The target of the test is T1, recombinant human CDK1/Cyclin B complex (Homo sapiens, UniProt P06493).
T1 construct: made in house; host or cells: High Five insect cells (baculovirus) for CDK1/GST-cyclin B; E. coli M15 for the Rb substrate
T1 sequence (P06493 whole entry): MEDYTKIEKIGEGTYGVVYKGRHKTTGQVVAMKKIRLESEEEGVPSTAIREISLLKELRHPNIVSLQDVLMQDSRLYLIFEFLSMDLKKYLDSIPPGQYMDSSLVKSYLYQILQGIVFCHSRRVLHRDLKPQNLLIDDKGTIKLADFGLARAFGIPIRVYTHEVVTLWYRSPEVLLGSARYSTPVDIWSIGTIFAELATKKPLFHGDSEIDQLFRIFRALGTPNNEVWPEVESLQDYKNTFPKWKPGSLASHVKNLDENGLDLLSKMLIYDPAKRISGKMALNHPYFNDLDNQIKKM
T1 sequence (P14635 whole entry partner): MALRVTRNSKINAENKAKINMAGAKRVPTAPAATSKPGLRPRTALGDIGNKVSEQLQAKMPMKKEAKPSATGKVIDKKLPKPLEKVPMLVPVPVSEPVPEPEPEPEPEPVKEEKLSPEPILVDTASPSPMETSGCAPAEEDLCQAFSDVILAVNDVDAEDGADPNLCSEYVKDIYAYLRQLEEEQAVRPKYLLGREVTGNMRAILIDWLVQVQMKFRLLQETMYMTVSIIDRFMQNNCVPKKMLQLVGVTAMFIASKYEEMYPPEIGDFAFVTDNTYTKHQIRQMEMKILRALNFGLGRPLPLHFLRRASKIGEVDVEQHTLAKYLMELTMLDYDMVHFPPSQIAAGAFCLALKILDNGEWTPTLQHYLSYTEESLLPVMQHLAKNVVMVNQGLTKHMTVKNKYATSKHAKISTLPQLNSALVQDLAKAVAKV
Briefly: CDK1/Cyclin B kinase assay (FlashPlate or HTRF). It is filed as biochemical. As to conditions: Rb protein substrate, Ki=IC50/(1+[S]/Km). The protocol: To determine inhibition of CDK1 activity, either FlashPlate™ (NEN™-Life Science Products) assay or HTRF Homogeneous Time Resolved Fluorescence assay was performed. Both types of kinase assays were carried out using recombinant human CDK1/Cyclin B complex. GST-cyclinB (GST-cycB) and CDK1 cDNA clones in baculovirus vectors were provided by Dr. W. Harper at the Baylor College of Medicine, Houston, Tex. Proteins were co-expressed in High Five™ insect cells and the complex was purified on glutathione Sepharose resin (Pharmacia, Piscataway, N.J.) as previously described (Harper, J. W. et al. Cell 1993, 75, 805-816). A 6×-Histidine tagged truncated form of retinoblastoma (Rb) protein (amino acid 386-928) was used as the substrate for the CDK1/Cyclin B assay (the expression plasmid was provided by Dr. Veronica Sullivan, Department of Molecular Virology, Roche Research Centre, Welwyn Garden City, United Kingdom). The Rb protein is a natural substrate for phosphorylation by CDK1 (see Herwig and Strauss Eur. J. Biochem. Vol. 246 (1997) pp. 581-601 and the references cited therein). The expression of the 62Kd protein was under the control of an IPTG inducible promoter in an M15 E. coli strain. Cells were lysed by sonication and purification was carried out by binding lysates at pH 8.0 to a Ni-chelated agarose column pretreated with 1 mM imidazole. The resin was then washed several times with incrementally decreasing pH buffers to pH 6.0, and eluted with 500 mM imidazole. Eluted protein was dialysed against 20 mM HEPES [4-(2-hydroxyethyl)-1-piperazineethanesulfonic acid, sodium salt] pH 7.5, 30% glycerol, 200 mM NaCl, and 1 mM DTT (dithiothreitol). Purified Rb fusion protein stocks were quantitated for protein concentration, aliquoted, and stored at −70° C.
For the FlashPlate kinase asasy, 96-well FlashPlates were coated with Rb protein at 10 μg/ml, using 100 μl per well. Plates were incubated at 4° C. overnight or at room temperature for 3 hours on a shaker. To control for nonspecific phosphorylation, one row of wells was coated with 100 μl/well coating buffer (20 mM HEPES, 0.2 M NaCl). Plates were then washed twice with wash buffer (0.01% Tween 20 in phosphate-buffered saline). Compounds to be tested (“test compounds”) were added to the wells at 5× final concentration. Reactions were initiated by immediate addition of 40 μl reaction mix (25 mM HEPES, 20 mM MgCl2, 0.002% Tween 20, 2 mM DTT, 1 μM ATP, 4 nM 33P-ATP) and a sufficient amount of enzyme to give counts that were at least 10-fold above background. Plates were incubated at room temperature on a shaker for 30 minutes. Plates were washed four times with the wash buffer, sealed, and counted on the TopCount scintillation counter (Packard Instrument Co., Downers Grove, Ill.]. The percent inhibition of Rb phosphorylation, which is a measure of the inhibition of CDK activity, was determined according to the following formula:
[formula] where “test compound” refers to the average counts per minute of the test duplicates, “nonspecific” refers to the average counts per minute when no CDK1/Cyclin B, etc., was added, and “total” refers to the average counts per minute when no compound was added. The IC50 value is the concentration of test compound that reduces by 50% the protein-kinase induced incorporation of the radiolabel under the test conditions described. The value of the inhibitor constant Ki is calculated by the following: Ki=IC50/(1+[S]/Km), where [S] is the ATP concentration and Km is Michaelis constant.
The Homogeneous Time Resolved Fluorescence (HTRF) kinase assay was carried out in 96-well polypropylene plates (BD Biosciences, Bedford, Mass.). Test compounds were first dissolved in DMSO, and then diluted in kinase assay buffer 1 (25 mM HEPES, pH7.0, 8 mM MgCl2, 1.5 mM DTT, and 162 μM ATP) with DMSO concentration at 15%. The CDK1/Cyclin B enzyme was diluted in kinase assay buffer 2 (25 mM HEPES, pH 7.0, 8 mM MgCl2, 0.003% Tween 20, 0.045% BSA, 1.5 mM DTT, and 0.338 μM Rb protein). […]
Turning to `COc1ccc(OC)c(CCNC2=NC(=O)/C(=C/c3ccc4ncccc4c3)S2)c1` [Example 5, 2-[2-(2,5-Dimethoxy-phenyl)-ethylamino]-5-[1-quinolin-6-yl-meth-(Z)-ylidene]-thiazol-4-one], the Ki worked out at 838 nM.
The result for `COc1ccccc1CNC1=NC(=O)/C(=C/c2ccc3ncccc3c2)S1` [Example 10, 2-(2-Methoxy-benzylamino)-5-[1-quinolin-6-yl-meth-(Z)-ylidene]-thiazol-4-one] reads 148 nM; that for `O=C1N=C(N[C@@H](CO)Cc2ccccc2)S/C1=C\c1ccc2ncccc2c1` [Example 20, 2-((R)-1-Hydroxymethyl-2-phenyl-ethylamino)-5-[1-quinolin-6-yl-meth-(Z)-ylidene]-thiazol-4-one], 604 nM.
Under `O=C1N=C(NC(CO)c2cccs2)S/C1=C\c1ccc2ncccc2c1` (stereo not drawn) [Example 25, 2-(2-Hydroxy-1-thiophen-2-yl-ethylamino)-5-[1-quinolin-6-yl-meth-(Z)-ylidene]-thiazol-4-one] stands 596 nM; under `O=C1N=C(N[C@@H]2c3ccccc3C[C@@H]2O)S/C1=C\c1ccc2ncccc2c1` [Example 30, 2-((1R,2S)-2-Hydroxy-indan-1-ylamino)-5-[1-quinolin-6-yl-meth-(Z)-ylidene]-thiazol-4-one], 3000 nM; under `O=C1N=C(NCC(c2ccccc2)N2CCOCC2)S/C1=C\c1ccc2ncccc2c1` (stereo not drawn) [Example 35, 2-(2-Morpholin-4-yl-2-phenyl-ethylamino)-5-[1-quinolin-6-yl-meth-(Z)-ylidene]-thiazol-4-one], 3300 nM.
